Measurements taken from ChEMBL document CHEMBL1201862, “PubChem BioAssay data set” (2004).
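96-well plates; 48 h exposure; 5 concentrations. Endpoints by linear interpolation between flanking doses. Not reached: highest tested concentration assigned. Here, GI50 denotes the concentration required for 50% inhibition of growth.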 Active and inactive are the calls of the source. Cut-off read from the data, not from the text of the source: active = GI50 up to about 1.1 µM and inactive = higher.

Assays:
Experiment in all cases: NCI tumour cell line growth inhibition, 48 h
786-0 = test system: 786-0
A498 = test system: A498
A549 = test system: A549
ACHN = test system: ACHN
CCRF-CEM = test system: CCRF-CEM
COLO 205 = test system: COLO 205
DLD-1 = test system: DLD-1
DMS-114 = test system: DMS-114
DMS-273 = test system: DMS-273
EKVX = test system: EKVX
HCC 2998 = test system: HCC 2998
HCT-15 = test system: HCT-15
HL-60 = test system: HL-60
HOP-18 = test system: HOP-18
HOP-62 = test system: HOP-62
HOP-92 = test system: HOP-92
HT-29 = test system: HT-29
IGROV-1 = test system: IGROV-1
K562 = test system: K562
KM-20L2 = test system: KM-20L2
KM12 = test system: KM12
LOX IMVI = test system: LOX IMVI
LXFL 529 = test system: LXFL 529
M14 = test system: M14
M19-MEL = test system: M19-MEL
MOLT-4 = test system: MOLT-4
NCI-H226 = test system: NCI-H226
NCI-H23 = test system: NCI-H23
NCI-H460 = test system: NCI-H460
NCI-H522 = test system: NCI-H522
OVCAR-3 = test system: OVCAR-3
OVCAR-4 = test system: OVCAR-4
OVCAR-8 = test system: OVCAR-8
RPMI-8226 = test system: RPMI-8226
RXF 393 = test system: RXF 393
SF-295 = test system: SF-295
SF-539 = test system: SF-539
SK-MEL-2 = test system: SK-MEL-2
SK-OV-3 = test system: SK-OV-3
SN12C = test system: SN12C
SNB-19 = test system: SNB-19
SNB-75 = test system: SNB-75
SR = test system: SR
SW-620 = test system: SW-620
TK-10 = test system: TK-10
U-251 = test system: U-251
UACC-257 = test system: UACC-257
UACC-62 = test system: UACC-62
UO-31 = test system: UO-31
XF498 = test system: XF498
CAKI-1 = test system: CAKI-1
Malme-3M = test system: Malme-3M
OVCAR-5 = test system: OVCAR-5
SF-268 = test system: SF-268
SK-MEL-28 = test system: SK-MEL-28
SK-MEL-5 = test system: SK-MEL-5

In the case of `C/C(=N\Nc1ccc([N+](=O)[O-])cc1)C(=O)N(C)Nc1ccccc1`, the GI50 (786-0) is reported as > 100 µM (inactive), the GI50 (A498) is reported as 29 µM (inactive) and the GI50 (A549) is reported as 40.5 µM (inactive). For the same compound, the GI50 (ACHN) was 35.4 µM (inactive), the GI50 (CCRF-CEM) was > 100 µM (inactive) and the GI50 (COLO 205) was 58.3 µM (inactive). The GI50 (DLD-1) was > 100 µM (inactive), the GI50 (DMS-114) was 48 µM (inactive) and the GI50 (DMS-273) was 69.8 µM (inactive). The GI50 (EKVX) was 34.5 µM (inactive), the GI50 (HCC 2998) was 33.8 µM (inactive) and the GI50 (HCT-15) was 48.1 µM. The GI50 (HL-60) was 65.3 µM (inactive), the GI50 (HOP-18) was > 100 µM (inactive) and the GI50 (HOP-62) was > 100 µM (inactive). The GI50 (HOP-92) was 53.7 µM (inactive), the GI50 (HT-29) was 66.8 µM (inactive) and the GI50 (IGROV-1) was 58.9 µM (inactive). The GI50 (K562) was 63.2 µM (inactive), the GI50 (KM-20L2) was 60.4 µM (inactive) and the GI50 (KM12) was 24 µM (inactive). For the same compound, the GI50 (LOX IMVI) was 64.4 µM (inactive), the GI50 (LXFL 529) was 52.6 µM (inactive) and the GI50 (M14) was 43.2 µM (inactive). The GI50 (M19-MEL) was 69.5 µM (inactive), the GI50 (MOLT-4) was 41 µM (inactive) and the GI50 (NCI-H226) was 38.9 µM (inactive). For the same compound, the GI50 (NCI-H23) was 58.5 µM (inactive), the GI50 (NCI-H460) was 47.1 µM (inactive) and the GI50 (NCI-H522) was 52.8 µM (inactive). The GI50 (OVCAR-3) was 43.9 µM (inactive), the GI50 (OVCAR-4) was 47.2 µM (inactive) and the GI50 (OVCAR-8) was 51.4 µM (inactive). The GI50 (RPMI-8226) was 76 µM (inactive), the GI50 (RXF 393) was 58.1 µM (inactive) and the GI50 (SF-295) was 34.5 µM (inactive). For the same compound, the GI50 (SF-539) was 76.4 µM (inactive), the GI50 (SK-MEL-2) was 29.1 µM (inactive) and the GI50 (SK-OV-3) was > 100 µM (inactive). The GI50 (SN12C) was 74 µM (inactive), the GI50 (SNB-19) was > 100 µM (inactive) and the GI50 (SNB-75) was 27.6 µM (inactive). For the same compound, the GI50 (SR) was 47.8 µM (inactive), the GI50 (SW-620) was > 100 µM (inactive) and the GI50 (TK-10) was 64.3 µM (inactive). For the same compound, the GI50 (U-251) was 62.1 µM (inactive), the GI50 (UACC-257) was 31.6 µM (inactive) and the GI50 (UACC-62) was 45.2 µM (inactive). For the same compound, the GI50 (UO-31) was 39.9 µM (inactive) and the GI50 (XF498) was 63.1 µM (inactive).
With `CC1C=C(CCCCCCCCCCCC[C@@H](O)[C@@H]2CC[C@@H]([C@@H]3CC[C@@H](C(O)CCCCCCCCCCCCC4=C[C@H](C)OC4=O)O3)O2)C(=O)O1` (some centres undefined) the GI50 (786-0) was > 100 µM (inactive), the GI50 (A498) was 75.7 µM (inactive) and the GI50 (A549) was 4.5 µM (inactive). For the same compound, the GI50 (ACHN) was > 100 µM (inactive), the GI50 (CAKI-1) was > 100 µM (inactive) and the GI50 (CCRF-CEM) was 5.36 µM (inactive). For the same compound, the GI50 (COLO 205) was 41.2 µM (inactive), the GI50 (DLD-1) was > 100 µM (inactive) and the GI50 (DMS-114) was 0.0697 µM (active). For the same compound, the GI50 (DMS-273) was > 41 µM (inactive), the GI50 (EKVX) was 1.44 µM (inactive) and the GI50 (HCC 2998) was > 100 µM (inactive). The GI50 (HCT-15) was 57.5 µM, the GI50 (HL-60) was 5.41 µM (inactive) and the GI50 (HOP-18) was > 100 µM (inactive). The GI50 (HOP-62) was > 100 µM (inactive), the GI50 (HOP-92) was 21.9 µM (inactive) and the GI50 (HT-29) was > 79.1 µM (inactive). For the same compound, the GI50 (IGROV-1) was > 71.1 µM (inactive), the GI50 (K562) was 0.993 µM (active) and the GI50 (KM-20L2) was > 95.5 µM (inactive). The GI50 (KM12) was > 68.1 µM (inactive), the GI50 (LOX IMVI) was 12.2 µM (inactive) and the GI50 (LXFL 529) was 17.1 µM (inactive). For the same compound, the GI50 (M14) was > 100 µM (inactive), the GI50 (M19-MEL) was 31.2 µM (inactive) and the GI50 (MOLT-4) was 11.6 µM (inactive). The GI50 (Malme-3M) was > 91.2 µM (inactive), the GI50 (NCI-H226) was 31 µM (inactive) and the GI50 (NCI-H23) was < 0.0422 µM (active). For the same compound, the GI50 (NCI-H460) was 0.881 µM (active), the GI50 (NCI-H522) was 1.28 µM (inactive) and the GI50 (OVCAR-3) was 23 µM (inactive). For the same compound, the GI50 (OVCAR-5) was > 100 µM (inactive), the GI50 (OVCAR-8) was 25.5 µM (inactive) and the GI50 (RPMI-8226) was 0.518 µM (active). For the same compound, the GI50 (RXF 393) was > 96.8 µM (inactive), the GI50 (SF-268) was > 47.5 µM (inactive) and the GI50 (SF-295) was 0.078 µM (active). For the same compound, the GI50 (SF-539) was 3.23 µM (inactive), the GI50 (SK-MEL-28) was > 100 µM (inactive) and the GI50 (SK-MEL-2) was > 100 µM (inactive). For the same compound, the GI50 (SK-MEL-5) was 0.0783 µM (active), the GI50 (SK-OV-3) was > 100 µM (inactive) and the GI50 (SN12C) was > 100 µM (inactive). For the same compound, the GI50 (SNB-19) was > 42.5 µM (inactive), the GI50 (SNB-75) was > 80 µM (inactive) and the GI50 (SW-620) was > 57.3 µM (inactive). The GI50 (TK-10) was > 100 µM (inactive), the GI50 (U-251) was 23.7 µM (inactive) and the GI50 (UACC-257) was 0.387 µM (active). For the same compound, the GI50 (UACC-62) was > 100 µM (inactive), the GI50 (UO-31) was 6.67 µM (inactive) and the GI50 (XF498) was 17.9 µM (inactive).
